Measured values as given in patent publication US11530223B2, “Spiro-lactam NMDA receptor modulators and uses thereof” (Aptinyx Inc., priority 2016, dated 2022).
Like-named read-outs stand apart in the source and are kept apart here.

What was measured:
[1] = biological target: T1, NMDAR2A (Homo sapiens, UniProt Q12879); assay: [3H]MK-801 binding in NMDAR2A expressing HEK cell membranes; assay type: biochemical; set-up: key to B: log EC50: 0=−; ≥1×10^−9 M (e.g., −8)=+; <1×10^−9 M (e.g., −10)=++; details: 50 μM glutamate; for EC50: read-out: B: log EC50 (converted)
T1 construct: expressed in transfected cells; host or cells: HEK cells (membrane extract)
Procedure: (§1) Assays were conducted as described by Moskal et al., “GLYX-13: a monoclonal antibody-derived peptide that acts as an N-methyl-D-aspartate receptor modulator,” Neuropharmacology, 49, 1077-87, 2005. These studies were designed to determine if the test compounds act to facilitate NMDAR activation in NMDAR2A, NMDAR2B, NMDAR2C or NMDAR2D expressing HEK cell membranes as measured by increases in [^3H]MK-801 binding.
(§2) In the assay, 300 μg of NMDAR expressing HEK cell membrane extract protein was preincubated for 15 minutes at 25° C. in the presence of saturating concentrations of glutamate (50 μM) and varying concentrations of test compound (1×10^−15M−1×10^−7M), or 1 mM glycine. Following the addition of 0.3 μCi of [^3H]MK-801 (22.5 Ci/mmol), reactions were again incubated for 15 minutes at 25° C. (nonequilibrium conditions). Bound and free [^3H]MK-801 were separated via rapid filtration using a Brandel apparatus.
(§3) In analyzing the data, the DPM (disintegrations per minute) of [^3H]MK-801 remaining on the filter were measured for each concentration of test compound or for 1 mM glycine. The DPM values for each concentration of a ligand (N=2) were averaged. The baseline value was determined from the best fit curve of the DPM values modeled using the GraphPad program and the log(agonist) vs. response (three parameters) algorithm was then subtracted from all points in the dataset. The % maximal [^3H]MK-801 binding was then calculated relative to that of 1 mM glycine: all baseline subtracted DPM values were divided by the average value for 1 mM glycine. The EC50 and % maximal activity were then obtained from the best fit curve of the % maximal [^3H]MK-801 binding data modelled using the GraphPad program and the log(agonist) vs. response (three parameters) algorithm.
(§4) The tables below summarize the results for the wild type […] NMDAR2A, NMDAR2B, NMDAR2C, and NMDAR2D, and whether the compound is not an agonist (−), is an agonist (+), or is a strong agonist (++), where column A is based on the % maximal [^3H]MK-801 binding relative to 1 mM glycine (−=0; <100%=+; and >100%=++); and column B is based on log EC50 values (0=−; ≥1×10^−9 M (e.g., −8)=+; and <1×10^−9 M (e.g., −10)=++).

[2] = IV pharmacokinetics; assay type: in vivo; details: Sprague Dawley rats; for C0: normal saline (first four compounds: 5% NMP, 5% Solutol HS, 90% normal saline); for Vd: read-out: Vss
Procedure: Sprague Dawley rats were dosed intravenously using a normal saline formulation containing 2 mg/kg of the compounds identified in the below table (except for the first four compounds that were delivered in 5% NMP, 5% Solutol® HS and 90% normal saline formulation). The table below summarizes the results of the IV pharmacokinetics.

[3] = system: rats; assay: positive emotional learning (PEL) test, 50-kHz ultrasonic vocalizations; assay type: in vivo; details: rat, PO, one hour after administration
Procedure: Experiments were conducted as described in Burgdorf et al., “The effect of selective breeding for differential rates of 50-kHz ultrasonic vocalizations on emotional behavior in rats,” Devel. Psychobiol., 51:34-46 (2009). Rat 50-kHz ultrasonic vocalization (hedonic USVs) is a validated model for the study of positive affective state and is best elicited by rough-and-tumble play.
The PEL assay measures the acquisition of positive (hedonic) 50-kHz ultrasonic vocalizations (USVs) to a social stimulus, heterospecific rough and tumble play stimulation. Heterospecific rough-and-tumble play stimulation was administered by the experimenter's right hand. One hour after administration of test compound or vehicle negative control (0.5% sodium carboxymethyl cellulose in 0.9% sterile saline vehicle), animals received 3 min of heterospecific rough-and-tumble play that consisted of alternating 15 sec blocks of heterospecific play and 15 sec of no-stimulation. High frequency ultrasonic vocalizations (USVs) were recorded and analyzed by sonogram with Avasoft SASlab Pro (Germany) as previously described by Burgdorf et al., “Positive emotional learning is regulated in the medial prefrontal cortex by GluN2B-containing NMDA receptors,” Neuroscience, 192:515-523 (2011). Frequency modulated 50-kHz USVs that occurred during each of the no-stimulation periods were quantified to measure PEL. Animals were not habituated to play stimulation before testing. Positive emotional learning was measured during the conditioned stimulus (CS) trials preceding the tickle unconditioned stimulus (UCS) trials. Animals received 15 second trials consisting of 6 CS and 6 UCS trials each (3 min total).
The table below summarizes the findings. As each experiment includes its own vehicle group, an example (typical) vehicle score is shown. Max effect (mean number of 50 kHz USVs per 15 seconds) is reported as ^: <6.0; *: 6.0-7.6; **: 7.7-10; ***:10.1-20

[4] = biological target: T2, NMDAR2D (Homo sapiens, UniProt O15399); assay: [3H]MK-801 binding in NMDAR2D expressing HEK cell membranes; assay type: biochemical; set-up: key to B: log EC50: 0=−; ≥1×10^−9 M (e.g., −8)=+; <1×10^−9 M (e.g., −10)=++; details: for A: % maximal [3H]MK-801 binding relative to 1 mM glycine: second part of table (r25-r35), c3, taken as NMDAR2D
T2 construct: expressed in transfected cells; host or cells: HEK cells (membrane extract)
Procedure: as §1, §2, §3, §4

[5] = oral pharmacokinetics (plasma, brain, CSF); assay type: in vivo; details: Sprague Dawley rats, per os 10 mg/kg; for Tmax: normal saline (first four compounds: 5% NMP, 5% Solutol HS, 90% normal saline)
Procedure: Plasma, brain, and CSF samples were analyzed at various time points over a 24 hour period.

[6] = biological target: T3, NMDAR2B (Homo sapiens, UniProt Q13224); assay: [3H]MK-801 binding in NMDAR2B expressing HEK cell membranes; assay type: biochemical; details: 50 μM glutamate; for EC50: read-out: B: log EC50 (converted); for Emax: read-out: A: % maximal [3H]MK-801 binding relative to 1 mM glycine
T3 construct: expressed in transfected cells; host or cells: HEK cells (membrane extract)
Procedure: as §1, §2, §3, §4

[7] = biological target: T4, NMDAR2C (Homo sapiens, UniProt Q14957); assay: [3H]MK-801 binding in NMDAR2C expressing HEK cell membranes; assay type: biochemical; details: second part of table (r25-r35); c2, taken as NMDAR2C; read-out: B: log EC50 (converted)
T4 construct: expressed in transfected cells; host or cells: HEK cells (membrane extract)
Procedure: as §1, §2
as §3, with “algorithm. […]” for “algorithm.”

[8] = biological target: T5, NMDAR2D (Homo sapiens, UniProt O15399+Q05586); assay: [3H]MK-801 binding in NMDAR2D expressing HEK cell membranes; assay type: biochemical; set-up: key to B: log EC50: 0=−; ≥1×10^−9 M (e.g., −8)=+; <1×10^−9 M (e.g., −10)=++; details: for EC50: second part of table (r25-r35), c4, taken as NMDAR2D, read-out: B: log EC50 (converted); for Emax: second part of table, c3, taken as NMDAR2D, read-out: A: % maximal [3H]MK-801 binding relative to 1 mM glycine
T5 construct: expressed in transfected cells; host or cells: HEK cells (membrane extract)
Procedure: as §1, §2, §3, §4

[9] = system: Sprague Dawley rats; assay: Porsolt forced swim test; assay type: in vivo; details: 0.1 mg/kg; for % reduction in float time: relative to vehicle group
Procedure: A non-clinical in vivo pharmacology study (Porsolt assay) was performed to measure antidepressant-like effects. A negative control (0.5% sodium carboxymethyl cellulose in 0.9% sterile saline vehicle) and a positive control (fluoxetine) are shown for comparison against test compound. The study allowed for the evaluation of the effects of each compound on the Porsolt forced swim test as assessed by the rats' response (reduced floating time) during a 5-minute swimming test.
Male 2-3 month old Sprague Dawley rats were used (Harlan, Indianapolis, Ind.). Rats were housed in Lucite cages with aspen wood chip bedding, maintained on a 12:12 light:dark cycle (lights on at 5 AM), and given ad libitum access to Purina lab chow (USA) and tap water throughout the study.
The Porsolt forced swim test adapted for use in rats was performed as described by Burgdorf et al., (The long-lasting antidepressant effects of rapastinel (GLYX-13) are associated with a metaplasticity process in the medial prefrontal cortex and hippocampus. Neuroscience 308:202-211, 2015). Animals were placed in a 46 cm tall×20 cm in diameter clear glass tube filled to 30 cm with tap water (23±1° C.) for 15 min on the first day (habituation) and 5 min on the subsequent test day. Positive control fluoxetine was dosed 3 times (24 h, 5 h and 1 h) prior to testing. Animals were tested 1 h or 24 h post-dosing with the test compounds or vehicle. Animals received a 15 min habituation session 1 day before the 5 min test. A subset of compounds tested at 1 h post-dosing were retested at 1 wk post-dosing in the same sets of animals. Water was changed after every other animal. Animals were videotaped, and floating time as defined as the minimal amount of effort required to keep the animals head above water was scored offline by a blinded experimenter with high inter-rater reliability (Pearson's r>0.9).
Each compound tested at dose level shown. Significance vs. vehicle group for each experiment is marked. […] A compound marked “No” was not statistically significant from vehicle. Data was averaged for test compound and vehicle groups (N approximately 8 per group) and the percent reduction in floating for group treated with test compound relative to group treated with vehicle is shown.

[10] = Sprague Dawley, rat, in vivo, iv, 2 mg/kg
[11] = Sprague Dawley, rat, plasma, po, 10 mg/kg
[12] = Sprague Dawley, rat, plasma, po, 10 mg/kg, plasma, read-out: Cmax
[13] = rat, plasma, po, read-out: Tmax
[14] = Sprague Dawley, rat, in vivo, iv, 2 mg/kg, read-out: C0

T5 sequence (O15399 28-1336, species assumed, other chains not shown): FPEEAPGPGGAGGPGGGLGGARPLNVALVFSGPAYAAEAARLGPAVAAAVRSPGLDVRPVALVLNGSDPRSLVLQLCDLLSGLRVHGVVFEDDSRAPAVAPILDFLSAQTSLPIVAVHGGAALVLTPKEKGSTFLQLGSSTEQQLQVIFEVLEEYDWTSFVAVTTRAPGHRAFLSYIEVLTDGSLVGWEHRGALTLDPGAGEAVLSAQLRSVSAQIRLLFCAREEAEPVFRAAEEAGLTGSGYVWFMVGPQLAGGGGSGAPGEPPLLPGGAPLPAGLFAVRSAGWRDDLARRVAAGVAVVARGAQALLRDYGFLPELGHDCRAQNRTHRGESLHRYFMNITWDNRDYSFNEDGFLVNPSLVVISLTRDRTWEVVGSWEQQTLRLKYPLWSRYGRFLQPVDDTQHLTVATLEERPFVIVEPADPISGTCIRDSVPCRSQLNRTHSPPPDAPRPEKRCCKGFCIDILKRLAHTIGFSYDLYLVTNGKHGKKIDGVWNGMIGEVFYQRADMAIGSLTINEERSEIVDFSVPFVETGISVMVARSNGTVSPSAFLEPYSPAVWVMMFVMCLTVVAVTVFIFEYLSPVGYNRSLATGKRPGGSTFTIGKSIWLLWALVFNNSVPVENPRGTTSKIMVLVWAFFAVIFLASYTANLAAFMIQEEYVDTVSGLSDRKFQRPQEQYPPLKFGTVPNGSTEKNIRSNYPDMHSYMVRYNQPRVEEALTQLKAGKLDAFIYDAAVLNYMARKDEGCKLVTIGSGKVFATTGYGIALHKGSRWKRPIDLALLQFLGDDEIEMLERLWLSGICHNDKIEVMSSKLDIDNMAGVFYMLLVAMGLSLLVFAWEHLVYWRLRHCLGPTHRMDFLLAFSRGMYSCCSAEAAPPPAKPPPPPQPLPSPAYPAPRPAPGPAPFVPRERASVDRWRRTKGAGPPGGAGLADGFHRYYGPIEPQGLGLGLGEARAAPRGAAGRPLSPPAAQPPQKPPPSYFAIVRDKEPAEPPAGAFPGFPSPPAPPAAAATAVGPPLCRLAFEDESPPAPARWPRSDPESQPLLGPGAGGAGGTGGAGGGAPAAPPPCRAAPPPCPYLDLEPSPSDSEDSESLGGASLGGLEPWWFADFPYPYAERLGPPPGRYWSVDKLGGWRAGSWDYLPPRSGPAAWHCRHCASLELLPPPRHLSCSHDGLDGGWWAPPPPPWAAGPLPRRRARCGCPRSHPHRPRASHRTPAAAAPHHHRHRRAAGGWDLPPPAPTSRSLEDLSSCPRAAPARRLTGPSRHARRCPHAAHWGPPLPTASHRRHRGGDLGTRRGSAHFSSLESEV
T2 sequence (O15399 28-1336, species assumed, other chains not shown): as above
T3 sequence (Q13224 27-1484, species assumed, other chains not shown): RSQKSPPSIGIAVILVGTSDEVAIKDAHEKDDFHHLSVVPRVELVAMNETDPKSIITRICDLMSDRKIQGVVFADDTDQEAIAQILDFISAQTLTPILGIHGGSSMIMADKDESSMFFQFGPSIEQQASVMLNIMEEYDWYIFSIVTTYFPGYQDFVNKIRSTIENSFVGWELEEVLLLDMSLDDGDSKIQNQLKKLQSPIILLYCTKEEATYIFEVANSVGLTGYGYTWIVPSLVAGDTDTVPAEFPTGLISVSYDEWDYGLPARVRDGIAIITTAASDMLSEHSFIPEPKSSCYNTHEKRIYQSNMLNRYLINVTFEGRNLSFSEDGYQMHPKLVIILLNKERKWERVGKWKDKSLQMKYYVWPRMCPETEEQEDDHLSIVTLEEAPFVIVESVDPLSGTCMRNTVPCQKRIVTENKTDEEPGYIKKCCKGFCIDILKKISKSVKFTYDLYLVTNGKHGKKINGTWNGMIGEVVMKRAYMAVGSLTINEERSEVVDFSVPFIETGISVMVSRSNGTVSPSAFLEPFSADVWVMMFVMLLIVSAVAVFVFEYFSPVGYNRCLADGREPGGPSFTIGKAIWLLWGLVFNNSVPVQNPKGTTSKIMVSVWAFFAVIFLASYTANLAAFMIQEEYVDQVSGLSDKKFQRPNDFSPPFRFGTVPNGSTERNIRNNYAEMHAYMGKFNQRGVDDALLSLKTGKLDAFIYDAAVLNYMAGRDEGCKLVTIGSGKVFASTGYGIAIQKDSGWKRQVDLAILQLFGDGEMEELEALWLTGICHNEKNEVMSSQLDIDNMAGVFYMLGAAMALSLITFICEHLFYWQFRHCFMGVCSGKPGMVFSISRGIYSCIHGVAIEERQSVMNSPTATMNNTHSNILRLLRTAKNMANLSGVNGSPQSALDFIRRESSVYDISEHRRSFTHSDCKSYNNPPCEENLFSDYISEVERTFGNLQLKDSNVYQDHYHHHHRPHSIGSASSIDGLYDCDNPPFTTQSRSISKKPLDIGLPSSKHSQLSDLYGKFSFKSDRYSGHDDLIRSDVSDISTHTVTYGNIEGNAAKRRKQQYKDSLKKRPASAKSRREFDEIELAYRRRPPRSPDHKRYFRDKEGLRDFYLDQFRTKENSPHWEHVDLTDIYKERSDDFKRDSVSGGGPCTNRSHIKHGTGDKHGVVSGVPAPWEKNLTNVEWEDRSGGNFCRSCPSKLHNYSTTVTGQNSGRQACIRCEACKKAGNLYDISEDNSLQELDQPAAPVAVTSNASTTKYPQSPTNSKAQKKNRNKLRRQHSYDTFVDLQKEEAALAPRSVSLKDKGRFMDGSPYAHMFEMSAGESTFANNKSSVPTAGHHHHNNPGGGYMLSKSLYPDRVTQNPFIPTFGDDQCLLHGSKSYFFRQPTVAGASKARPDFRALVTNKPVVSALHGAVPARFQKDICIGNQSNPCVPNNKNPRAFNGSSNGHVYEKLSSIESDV
T4 sequence (Q14957 20-1233, species assumed, other chains not shown): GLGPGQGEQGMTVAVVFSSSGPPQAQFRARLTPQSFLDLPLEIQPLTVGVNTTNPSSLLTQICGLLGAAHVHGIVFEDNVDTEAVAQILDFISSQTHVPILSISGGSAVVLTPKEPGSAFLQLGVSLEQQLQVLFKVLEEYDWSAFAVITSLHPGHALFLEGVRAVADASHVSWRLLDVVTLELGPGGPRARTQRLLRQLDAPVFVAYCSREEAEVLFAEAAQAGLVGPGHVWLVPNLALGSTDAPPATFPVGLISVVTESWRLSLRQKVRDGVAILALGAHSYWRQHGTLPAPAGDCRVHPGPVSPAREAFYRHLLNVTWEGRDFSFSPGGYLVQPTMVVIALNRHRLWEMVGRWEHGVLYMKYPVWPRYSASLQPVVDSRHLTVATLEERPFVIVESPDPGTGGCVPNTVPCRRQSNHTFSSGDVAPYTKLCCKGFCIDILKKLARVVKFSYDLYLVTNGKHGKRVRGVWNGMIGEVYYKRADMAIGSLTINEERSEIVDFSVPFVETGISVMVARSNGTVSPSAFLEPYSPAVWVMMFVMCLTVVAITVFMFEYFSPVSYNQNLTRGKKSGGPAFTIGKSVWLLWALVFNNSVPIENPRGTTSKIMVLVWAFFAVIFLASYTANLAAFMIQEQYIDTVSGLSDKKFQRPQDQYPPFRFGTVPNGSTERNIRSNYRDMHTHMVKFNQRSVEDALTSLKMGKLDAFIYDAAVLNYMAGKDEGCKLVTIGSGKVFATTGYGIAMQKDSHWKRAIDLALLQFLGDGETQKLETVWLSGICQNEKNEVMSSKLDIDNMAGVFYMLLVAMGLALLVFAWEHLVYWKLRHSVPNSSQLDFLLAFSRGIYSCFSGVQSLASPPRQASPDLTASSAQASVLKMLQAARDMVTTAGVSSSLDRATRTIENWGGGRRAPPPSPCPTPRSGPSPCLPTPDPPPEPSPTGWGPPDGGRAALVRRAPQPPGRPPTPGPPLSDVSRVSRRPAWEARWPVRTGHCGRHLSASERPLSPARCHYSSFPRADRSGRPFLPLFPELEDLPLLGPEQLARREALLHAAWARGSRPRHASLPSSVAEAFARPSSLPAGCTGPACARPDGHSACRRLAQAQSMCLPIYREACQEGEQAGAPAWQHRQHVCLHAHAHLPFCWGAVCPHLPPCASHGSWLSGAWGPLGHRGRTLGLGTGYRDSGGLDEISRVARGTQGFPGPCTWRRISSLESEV

Row | SMILES | A: % maximal [3H]MK-801 binding relative to 1 mM glycine [1] | EC50 [1] [nM] | Vss ([2]; intravenous 2 mg/kg) [L/kg] | C0 ([2]; intravenous 2 mg/kg) [ng/mL] | A: % maximal [3H]MK-801 binding relative to 1 mM glycine [4] | CSF Cmax [5] [ng/mL] | Brain Cmax [5] [ng/mL] | A: % maximal [3H]MK-801 binding relative to 1 mM glycine [6] | EC50 [6] [nM] | EC50 [7] [nM] | AUC(0-t) [2, 10] [ng·h/mL] | half-life [2, 10] [min] | Max Effect (mean number of 50 kHz USVs per 15 seconds) ([3]; dose .001-1 mg/kg) | EC50 [8] [nM] | AUC(0-t) [5, 11] [ng·h/mL] | bioavailability [5, 11] [%] | Cmax [5, 12] [ng/mL] | Tmax [5, 13] [min] | Emax [6] [%] | clearance [2, 10] [mL/min/kg] | other results
1 | CC(C)(C)OC(=O)N1CCCC2(CCNC2=O)C1 (single isomer, unassigned) [RA-1, tert-butyl 1-oxo-2,7-diazaspiro[4.5]decane-7-carboxylate] | + (<100%=+) | ≥ 1 | 1.69 | 1247.08 | − (−=0) | 102.5 | 203.6 | + (<100%=+) | < 1 | < 1 |  |  |  |  |  |  |  |  |  |  | AUClast ([2]; intravenous 2 mg/kg): 234.08 ng·h/mL; T1/2 ([2]; intravenous 2 mg/kg): 11.4 min; Max Effect (mean number of 50 kHz USVs per 15 seconds) ([3]; dose 0.1 mg/kg): *** (***:10.1-20); B: log EC50 ([4]; second part of table, c4, taken as NMDAR2D): −; % F [5]: 28%; AUClast [5]: 324.2 ng·h/mL; Tmax [5]: 15 min; Cmax ([5]; plasma): 592 ng/mL
2 | CC(C)(C)OC(=O)N1CCCC2(CCNC2=O)C1 (single isomer, unassigned) [RE-1, tert-butyl 1-oxo-2,7-diazaspiro[4.5]decane-7-carboxylate] | − (−=0) |  | 4.12 | 589.9 | + (<100%=+) | 86.1 | 22 |  | < 1 |  | 136 | 16.2 | *** (***:10.1-20) | < 1 | 273 | 40 | 495 | 15 | < 100 |  | B: log EC50 [1]: −
3 | CC(C)(C)OC(=O)N1CCCC12CCNC2=O (single isomer, unassigned) [RM-1, tert-butyl 6-oxo-1,7-diazaspiro[4.4]nonane-1-carboxylate] | + (<100%=+) | < 1 |  |  |  | 1415 | 2763 | ++ (>100%=++) | < 1 | < 1 | 1330 | 29.4 | *** (***:10.1-20) | < 1 | 5010 | 75 | 4310 | 15 |  | 24.9 | C0 [2, 14]: 2010 ng/mL; Vd [2, 10]: 0.91 L/kg; Emax [8]: < 100%
4 | CC(C)C(=O)N1CCCC12CCNC2=O (stereo not shown) [RZ-405] | + (<100%=+) | < 1 |  |  |  | 3157 | 2209 |  | ≥ 1 | < 1 | 7010 | 243 |  | < 1 | 29500 | 84 | 10800 | 30 | > 100 | 4.74 | C0 [2, 14]: 3040 ng/mL; Vd [2, 10]: 0.69 L/kg; Emax [8]: < 100%; Significance vs. vehicle ([9]; 1 h post-dose, floating time in 5 min test): Yes (statistically significant (p<=0.05) from vehicle at dose level shown); % reduction in float time ([9]; 1 h post-dose): 78.9%; Significance vs. vehicle ([9]; 24 h post-dose): Yes (statistically significant (p<=0.05) from vehicle at dose level shown); % reduction in float time ([9]; 24 h post-dose): 42.7%
